Results: US20030100605A1, “Methods of treating cancer with angiogenesis inhibitors” (priority 2001, published 2003)

What was measured:
[1] = tested on: human hematopoietic progenitors; assay: In vitro bone marrow culture, colony formation in methylcellulose; type: cell-based
Method: In vitro bone marrow culture. Light density cells separated by density gradient centrifugation (Lymphocyte Separation Medium, ICN Pharmaceutical, Costa Mesa, Calif.) from normal human BM donors were plated in methylcellulose medium with recombinant cytokines. This medium, MethoCult GF (Stem Cell Technologies, Vancouver, Canada), contains stem cell factor 50 ng/ml, GM-CSF 10 ng/ml, IL-3 10 ng/ml and erythropoietin 3 units/ml. 5×10^4 BM cells/dish were cultured with TNP-470 at concentrations ranging from 1 mcg/ml to […], with duplicate cultures at each dose. The plates were scored after 14 days of culture, enumerating colony-forming unit granulocyte/macrophage (CFU-GM), CFU-mix, CFU-erythrocyte and burst-forming unit erythrocyte (CFU-E and BFU-E).
Effect of TNP-470 on bone marrow colony-forming cells. Although hematologic toxicity has not been described in the TNP-470 phase I trials (24, 25), there is one report of in vitro evidence of BM toxicity (16). In order to confirm this finding, we investigated the effect of relatively high concentrations of TNP-470 (0-100 μg/ml) on growth of human hematopoietic progenitors in standard methylcellulose culture. […] Although this assay is not necessarily predictive of in vivo BM toxicity, the result emphasizes the need to develop a pre-clinical model of stem cell transplantation to assess the effect of AIs on engraftment.

[2] = Survival and toxicity after TBI and stem cell rescue in the mouse stem cell transplant model; type: in vivo, FVB mice
Description: Donors, recipients and preparative regimen. Transgenic mice expressing a human IgM Tg in the FVB background were used as the donor source of bone marrow stem cells for transplantation. The FVB strain of inbred mice is frequently utilized in the generation of transgenic animals. Marrow was collected from Tg+ mice from femurs flushed with sterile PBS. Recipients were FVB mice (Jackson Laboratory, Bar Harbor, Me.) or Tg negative littermates of the Tg positive donors, treated in groups of 5-8 animals/intervention. Recipients received total body irradiation (TBI) in an M38-1 Irradiator (Isomedix) at a dose rate of 2.7 Gy/min in a mixed/split fashion with a 3 hour interfraction interval to allow a higher dose of radiation without significant gastrointestinal toxicity. After completion of TBI, mice received stem cells via tail vein injection. The mice were maintained in a temperature controlled humidified area in autoclaved microisolator cages and fed ad libitum and provided acidified water. Mice were assessed three times weekly after stem cell infusion. These studies were approved by the Animal Care and Use Committee of the Children's Hospital of Philadelphia.
(§1) Compound (drug). TNP-470 was provided by TAP Pharmaceuticals (Deerfield, Ill.). Prior to use, TNP-470 was reconstituted in sterile saline, aliquoted and stored at −80° C. TNP-470 was used at a dose of 20-100 mg/kg given SQ three times per week beginning at day 0 or at a dose of 10-20 mg/kg/week given by continuous intraperitoneal infusion using an Alzet infusion pump (Alza Co., Palo Alto, Calif.). The continuous TNP-470 infusion began on the day prior to transplant to allow for pump implantation (see below).
Effect of TNP-470 on engraftment. Several dose levels of TNP-470 were explored to assess any effect on BM engraftment and engraftment kinetics. Immediately following lethal irradiation and tail vein injection of Tg+ BM cells, recipient mice were given either TNP-470 or saline starting on day 0. Dose schedules were also varied from a single dose at the time of stem cell infusion to an initial dose on day 0 followed by administration of TNP-470 or saline 3 times a week (Table 3). Mice were initially sacrificed on days 28-32 at all dose levels. Comparative kinetics were then further analyzed by sacrificing groups of mice at day 21, day 24, and day 28 at dose level 3.

[3] = Recovery of peripheral blood counts and marrow cellularity after stem cell rescue; type: in vivo, FVB mice
Method: as §1
Alzet infusion pump placement. Using sterile technique following anesthesia, a 1 cm midline abdominal incision was made and 14 day Alzet micro-osmotic pumps (0.25 μl/hr, model 1002) containing either TNP-470 or saline were placed intraperitoneally. The peritoneum and skin were then secured separately using 4.0 vicryl suture. The animals were allowed to recover overnight and then subjected to TBI and stem cell infusion on the following day.
Analysis of engraftment. […] Following cervical dislocation, BM and splenocytes were collected from recipient mice. Analysis was performed after red cell lysis with NH4Cl. For flow cytometric analysis of lymphoid engraftment, Tg IgM expressed only in B cells derived from the donor was detected by antibodies recognizing human IgM (RAHM; Jackson ImmunoResearch, West Grove, Pa.) and mouse CD45R (B220, Pharmingen, Torreyana, Calif.) in a two-color protocol on a FACS Caliber cytometer (Becton-Dickinson, Franklin Lakes, N.J.). Splenocytes from untransplanted Tg− and Tg+ mice provided negative and positive controls, respectively. Lymphoid engraftment was defined as the percentage of lymphoid cells in spleen and BM that were B220/RAHM positive. In addition to flow cytometry, genomic DNA from tail snips, blood, BM, and splenocytes was analyzed by PCR for the presence of the transgene, using a procedure and primers previously reported (15). The transgene was detectable by PCR in all donor-derived cells in the recipient, while the tail snips of Tg− mice provided a negative control. Genomic DNA was also isolated from splenic and peripheral blood T cells. Splenic T cells were isolated using the Cellect T isolation column (Biotex, Edmonton, Canada) according to the manufacturer's protocol. Peripheral blood T cells were sorted on the FACS Vantage (Becton-Dickson) after staining with antibodies recognizing mouse CD3 (Pharmingen). Recovery of peripheral blood counts was also analyzed. Blood was collected from cardiac puncture and placed in EDTA tubes (Becton-Dickson). Analysis was then performed with a HemeVet (CDC Technologies) instrument using mouse-specific parameters. Hemoglobin was measured and white blood cells (WBC) and platelets were enumerated.

neuroblastoma cell lines = conditions: first administered ten days after inoculation with two different neuroblastoma cell lines; cited from earlier work
[4] = cited from earlier work

CO[C@@H]1[C@H](OC(=O)NC(=O)CCl)CC[C@@]2(CO2)[C@H]1[C@]1(C)O[C@@H]1CC=C(C)C [TNP-470]
inhibition at 4 µg/mL ([1]; Homo sapiens, 336 h, TNP-470 4 μg/ml, myeloid and erythroid colonies, 14 days culture): > 80% | inhibition of colony-forming cells ([1]; higher doses than 4 μg/ml (range 0-100 μg/ml)): complete inhibition | Overall survival ([2]; all dose levels, after stem cell rescue): 66% | survival rate ([2]; dose level 1 (20 mg/kg on day 0 and then thrice weekly), at completion of the experiment): 57% | survived to experiment completion ([2]; dose level 2 (100 mg/kg on day 0 only), day 28-32): 71% | weight loss ([2]; dose level 4 (100 mg/kg 3×/week)): greater weight loss than the control animals | skin irritation ([2]; dose level 4 (100 mg/kg 3×/week), SQ): evidence of skin irritation at the injection sites | WBC ([3]; continuous infusion): 6300 µL⁻¹ | hemoglobin or platelet recovery versus control ([3]; continuous infusion 10 mg/kg/week): no significant differences | marrow cellularity versus controls ([3]; day 28, dose level 3, femurs): no difference | WBC ([3]; day 28 post BMT, continuous infusion IP via Alzet pump at 10 mg/kg/wk, mean ± SEM): 6.3 ± 0.4 10^3/μL | WBC ([3]; day 28 post BMT, intermittent dosing, dose level 3, SQ three times/wk, mean ± SEM): 3.6 ± 0.7 10^3/μL | hemoglobin or platelet count versus control ([3]; intermittent (bolus) dosing): No statistical differences | mean white blood cell count ([3]; intermittent TNP-470): 3600 µL⁻¹ | effect on primary tumor and metastases (neuroblastoma cell lines): decreased the primary tumor volume and the size and number of lymph node and liver metastases | hematologic toxicity in Phase I trials ([4]; Phase I trials): no significant hematologic toxicity | maximal tolerated dose (MTD) ([4]; one-hour intravenous infusions, three times a week, intermittent schedule): 60 mg/m^2
